Data on three compounds can be found in ChEMBL document CHEMBL1649466, “High-throughput screening identifies novel inhibitors of the acetyltransferase activity of Escherichia coli GlmU” (Antimicrob Agents Chemother, 2009).

The target of assay [1] is Bifunctional protein GlmU (Escherichia coli (strain K12)) (UniProt P0ACC7). The experiment in a line: Competitive inhibition of Acetyltransferase activity of Escherichia coli BL21(DE3) GlmU in presence of AcCoA.
Assay [2] has the same target. The experiment in a line: Uncompetitive inhibition of Acetyltransferase activity of Escherichia coli BL21(DE3) GlmU in presence of GlcN-1P.
The target is the same in assay [3]. In words: Uncompetitive inhibition of Acetyltransferase activity of Escherichia coli BL21(DE3) GlmU in presence of AcCoA.

Sequence of Bifunctional protein GlmU (Escherichia coli (strain K12)) (P0ACC7 whole entry, looked up): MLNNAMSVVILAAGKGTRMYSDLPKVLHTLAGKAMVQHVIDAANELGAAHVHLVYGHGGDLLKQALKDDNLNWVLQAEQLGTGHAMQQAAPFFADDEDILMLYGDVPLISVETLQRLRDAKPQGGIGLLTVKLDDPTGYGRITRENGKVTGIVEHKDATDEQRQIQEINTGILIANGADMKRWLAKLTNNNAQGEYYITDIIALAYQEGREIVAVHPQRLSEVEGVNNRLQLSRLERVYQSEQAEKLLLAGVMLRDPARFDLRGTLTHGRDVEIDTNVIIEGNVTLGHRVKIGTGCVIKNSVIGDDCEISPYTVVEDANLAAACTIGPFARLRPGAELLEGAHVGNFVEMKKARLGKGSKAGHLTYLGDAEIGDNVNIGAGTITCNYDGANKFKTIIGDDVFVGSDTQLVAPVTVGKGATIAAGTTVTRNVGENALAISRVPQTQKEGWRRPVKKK

Turning to `O=S(=O)(Nc1ccc(S(=O)(=O)c2ccc(-c3ccc(S(=O)(=O)c4ccc(NS(=O)(=O)c5ccc(Cl)cc5)c(Cl)c4)cc3)cc2)cc1Cl)c1ccc(Cl)cc1`, in assay [1], the Kic was 404 nM. In addition, the Kiuc in assay [2] came out at 1.11 ×10³ nM.
With `O=C(CSc1nnc(SCC(=O)NCCSCc2ccco2)s1)NCCSCc1ccco1`, the Kic in assay [1] worked out at 22.8 nM. For the same compound, the Kiuc in assay [3] is 101 nM.
Take `Nc1ccc(Nc2ccc(N)cc2S(=O)(=O)O)cc1`: the Kic in assay [1] came out at 17.2 nM. Moreover, in assay [2], the Kiuc was 189 nM.
